{"source": "patent US4443478A", "about": "“Prostaglandin analogues” (Ono Pharmaceutical Co., Ltd., priority 1981, dated 1984)", "key": {"[1]": {"test_system": "carbon tetrachloride-induced liver damage", "experiment": "carbon tetrachloride-induced liver damage in rats", "type": "in vivo", "conditions": "rat, in comparison with controls"}, "blood pressure": {"test_system": "blood pressure", "experiment": "fall in blood pressure in the allobarbital-anaesthetized dog", "type": "in vivo", "conditions": "intravenous"}, "[2]": {"test_system": "adenosine diphosphate-induced blood platelet aggregation", "experiment": "inhibition of adenosine diphosphate-induced blood platelet aggregation in platelet-rich plasma", "type": "cell-based", "conditions": "Homo sapiens; platelet-rich plasma of humans; read-out: concentration producing 50% inhibition of adenosine diphosphate-induced blood platelet aggregation"}, "male mice": {"test_system": "male mice", "experiment": "acute toxicity by oral administration", "type": "in vivo, mouse", "protocol": "On the other hand, the compounds of the present invention were confirmed that their toxicities (i.e. LD50) were more than […] animal body weight by oral administration. Therefore, the compounds of the present invention may be considered to be sufficiently safe and suitable for medical use."}, "[3]": {"test_system": "α-naphthylisothiocyanate-induced liver damage", "experiment": "α-naphthylisothiocyanate-induced liver damage in rats", "type": "in vivo", "conditions": "rat, oral, 100 μg/kg, in comparison with controls"}, "[4]": {"test_system": "D(+)-galactoseamine-induced liver damage", "experiment": "D(+)-galactoseamine-induced liver damage in rats", "type": "in vivo", "conditions": "rat, oral, 100 μg/kg, in comparison with control"}, "uterine contraction": {"test_system": "uterine contraction", "experiment": "stimulation of uterine contraction in the pregnant female rat", "type": "in vivo", "conditions": "20th day of gestation, intravenous"}, "stress ulceration": {"test_system": "stress ulceration", "experiment": "inhibition of stress ulceration in rats", "type": "in vivo", "conditions": "rat, oral", "text": "For example, in standard laboratory tests, (i) in stress ulceration of rats [produced according to the methods of Takagi and Okabe, Jap."}}, "data": [{"smiles": "CCCC1CCC([C@H](O)/C=C/[C@H]2[C@H](O)CC(=O)[C@@H]2CC(=O)CCCCC(=O)CO)C1", "note": "(stereo partly drawn) [1-Hydroxymethyl-11α,15(S)-dihydroxy-15-(3-propylcyclopentyl)-16,17,18,19,20-pentanorprost-trans-13-ene-1,6,9-trione]", "values": [{"measurement": "inhibition of plasma GOT (glutamic oxalacetic transaminase)", "setting": "[1]; oral, 50 μg/kg", "value": 46.7, "unit": "%"}, {"measurement": "inhibition of plasma GPT (glutamic pyruvic transaminase)", "setting": "[1]; oral, 50 μg/kg", "value": 45.1, "unit": "%"}, {"measurement": "duration of fall in blood pressure", "setting": "blood pressure; 0.1 μg/kg", "value": 9, "unit": "min"}, {"measurement": "fall in blood pressure", "setting": "blood pressure; 0.1 μg/kg", "value": 20, "unit": "mm Hg"}, {"measurement": "duration of fall in blood pressure", "setting": "blood pressure; 0.2 μg/kg", "value": 23, "unit": "min"}, {"measurement": "fall in blood pressure", "setting": "blood pressure; 0.2 μg/kg", "value": 35, "unit": "mm Hg"}, {"measurement": "IC50", "setting": "[2]", "value": "0.0018 to 0.018", "unit": "µg/mL"}, {"measurement": "deaths in acute toxicity test", "setting": "male mice; 5 mg/kg", "value": "one death in 5 cases"}]}, {"smiles": "CCCC1CC([C@H](O)/C=C/[C@H]2[C@H](O)CC(=O)[C@@H]2CC(=O)CCCCC(=O)CO)C1", "note": "(relative stereo) [1-hydroxymethyl-11α,15(S)-dihydroxy-15-(3-propylcyclobutyl)-16,17,18,19,20-pentanorprost-trans-13-ene-1,6,9-trione]", "values": [{"measurement": "inhibition of plasma GOT", "setting": "[3]", "value": 53.1, "unit": "%"}, {"measurement": "inhibition of plasma GPT", "setting": "[3]", "value": 61.3, "unit": "%"}, {"measurement": "inhibition of plasma bilirubin", "setting": "[3]", "value": 30.3, "unit": "%"}]}, {"smiles": "CCCCC1CCC([C@H](O)/C=C/[C@H]2[C@H](O)CC(=O)[C@@H]2CC(=O)CCCCC(=O)CO)C1", "note": "(stereo partly drawn) [1-Hydroxymethyl-11α,15(S)-dihydroxy-15-(3-butylcyclopentyl)-16,17,18,19,20-pentanorprost-trans-13-ene-1,6,9-trione]", "values": [{"measurement": "inhibition of plasma GOT (glutamic oxalacetic transaminase)", "setting": "[1]; oral, 50 μg/kg", "value": 54.9, "unit": "%"}, {"measurement": "inhibition of plasma GPT (glutamic pyruvic transaminase)", "setting": "[1]; oral, 50 μg/kg", "value": 48.6, "unit": "%"}, {"measurement": "inhibition of plasma GOT", "setting": "[3]", "value": 30.3, "unit": "%"}, {"measurement": "inhibition of plasma GPT", "setting": "[3]", "value": 41.7, "unit": "%"}, {"measurement": "inhibition of plasma bilirubin", "setting": "[3]", "value": 15.2, "unit": "%"}, {"measurement": "inhibition of plasma GOT", "setting": "[4]", "value": 57.0, "unit": "%"}, {"measurement": "inhibition of plasma GPT", "setting": "[4]", "value": 54.0, "unit": "%"}, {"measurement": "inhibition of plasma bilirubin", "setting": "[4]", "value": 63.0, "unit": "%"}, {"measurement": "duration of fall in blood pressure", "setting": "blood pressure; 0.5 μg/kg", "value": 17, "unit": "min"}, {"measurement": "fall in blood pressure", "setting": "blood pressure; 0.5 μg/kg", "value": 20, "unit": "mm Hg"}, {"measurement": "duration of fall in blood pressure", "setting": "blood pressure; 1.0 μg/kg", "value": 40, "unit": "min"}, {"measurement": "fall in blood pressure", "setting": "blood pressure; 1.0 μg/kg", "value": 47, "unit": "mm Hg"}, {"measurement": "IC50", "setting": "[2]", "value": "0.0036 to 0.072", "unit": "µg/mL"}, {"measurement": "stimulation of uterine contraction", "setting": "uterine contraction; 20 μg/kg", "value": "stimulated uterine contraction"}, {"measurement": "stimulation of uterine contraction", "setting": "uterine contraction; 50 μg/kg", "value": "stimulated uterine contraction"}, {"measurement": "deaths in acute toxicity test", "setting": "male mice; 10 mg/kg", "value": 2, "unit": "deaths in 5 cases"}]}, {"smiles": "CCCC[C@H](C)C[C@H](O)/C=C/[C@H]1[C@H](O)CC(=O)[C@@H]1CC(=O)CCCCC(=O)CO", "note": "(relative stereo) [1-Hydroxymethyl-11α,15(S)-dihydroxy-17(S),20-dimethylprost-trans-13-ene-1,6,9-trione]", "values": [{"measurement": "inhibition of stress ulceration", "setting": "stress ulceration; 20 μg/kg", "value": 56.8, "unit": "%"}, {"measurement": "inhibition of stress ulceration", "setting": "stress ulceration; 50 μg/kg", "value": 91.8, "unit": "%"}, {"measurement": "inhibition of plasma GOT (glutamic oxalacetic transaminase)", "setting": "[1]; oral, 50 μg/kg", "value": 58.0, "unit": "%"}, {"measurement": "inhibition of plasma GPT (glutamic pyruvic transaminase)", "setting": "[1]; oral, 50 μg/kg", "value": 59.7, "unit": "%"}, {"measurement": "inhibition of plasma GOT (glutamic oxalacetic transaminase)", "setting": "[1]; subcutaneous, 20 μg/kg", "value": 61.4, "unit": "%"}, {"measurement": "inhibition of plasma GPT (glutamic pyruvic transaminase)", "setting": "[1]; subcutaneous, 20 μg/kg", "value": 48.7, "unit": "%"}, {"measurement": "inhibition of plasma GOT", "setting": "[3]", "value": 49.0, "unit": "%"}, {"measurement": "inhibition of plasma GPT", "setting": "[3]", "value": 53.7, "unit": "%"}, {"measurement": "inhibition of plasma bilirubin", "setting": "[3]", "value": 21.2, "unit": "%"}, {"measurement": "duration of fall in blood pressure", "setting": "blood pressure; 0.3 μg/kg", "value": 14, "unit": "min"}, {"measurement": "fall in blood pressure", "setting": "blood pressure; 0.3 μg/kg", "value": 6, "unit": "mm Hg"}, {"measurement": "duration of fall in blood pressure", "setting": "blood pressure; 0.5 μg/kg", "value": 29, "unit": "min"}, {"measurement": "fall in blood pressure", "setting": "blood pressure; 0.5 μg/kg", "value": 15, "unit": "mm Hg"}, {"measurement": "stimulation of uterine contraction", "setting": "uterine contraction; 20 μg/kg", "value": "stimulated uterine contraction"}, {"measurement": "deaths in acute toxicity test", "setting": "male mice; 5 mg/kg", "value": "no deaths in 10 cases"}, {"measurement": "deaths in acute toxicity test", "setting": "male mice; 10 mg/kg", "value": "no deaths in 10 cases"}]}]}
